From patent publication US8932581B2, “Calcium-mediated effects of coral and methods of use thereof” (Ben Gurion University of the Negev Research and Development …, priority 2007, dated 2015) come the findings set out here.

SMILES strings stand for the structures.

The experiment concerns mesenchymal stem cells (MSCs). Put plainly: Scanning Electron Micrographs of MSC density on coral biomatrices with and without calcium chelator. Format: cell-based, Mus-musculus. The conditions noted are these: incubation with the calcium chelator; FIGS. 2Aj, 2Al. As to the method: Two biomaterial derivatives were prepared, one from the hydrocoral M. dichotoma (designated MIL) and the other, for purposes of comparison, from scleractinian coral P. lutea—(designated POR). Colonies of M. dichotoma were collected from the shallow seawater zones adjacent to the Interuniversity Institute of Marine Science (IUD in Eilat, Israel, at depths of 6-8 meters. Each colony was cut into fragments and glued with epoxy resin into the tops of PVC tubes. After an adjustment period of 3 months, cloned fragments were transferred to a laboratory tank system. POR were prepared from cores drilled out from long-lived massive colonies.
Both types of skeleton were cut into blocks and bleached using a commercial hypochloride solution. After this preliminary cleaning process, samples were rinsed with distilled water and air-dried. […]
Images were acquired using an Axiovert-200 (Zeiss, Germany) inverted microscope equipped with X20 Plan-Neofluar (N.A. 0.50) and X40 LD-Acrhoplan objectives (N.A. 0.60) and a cooled CCD camera (SensiCam, PCO, USA) controlled by Metamorph (version 6.2, Universal Imaging, Downingtown, Pa.). […] Cells were counted manually, and the numbers were averaged and interpolated for 1 mm^2 of crystalline surface.

On to `O=C(O)CN(CCOCCOCCN(CC(=O)O)CC(=O)O)CC(=O)O` [EGTA, O,O′-bis(2-aminoethyl)ethyleneglycol tetraacetic acid], for which the “local cell density on coral seeded with MSCs, effect of calcium chelator” value is recorded as “further increased local cell density”.
